Assay results as given in ChEMBL document CHEMBL1201862, “PubChem BioAssay data set” (2004).
Active and inactive are the calls of the source.

Assays:
[1] = target: T1, Carboxy-terminal domain RNA polymerase II polypeptide A small phosphatase 1 (Homo sapiens, UniProt Q9GZU7); experiment: inhibitors of CTDSP1, concentration-response testing, biochemical assay, absorbance-based, actives from ultra-high-throughput screening (AID 540297); assay type: functional
T1 sequence (Q9GZU7 whole entry): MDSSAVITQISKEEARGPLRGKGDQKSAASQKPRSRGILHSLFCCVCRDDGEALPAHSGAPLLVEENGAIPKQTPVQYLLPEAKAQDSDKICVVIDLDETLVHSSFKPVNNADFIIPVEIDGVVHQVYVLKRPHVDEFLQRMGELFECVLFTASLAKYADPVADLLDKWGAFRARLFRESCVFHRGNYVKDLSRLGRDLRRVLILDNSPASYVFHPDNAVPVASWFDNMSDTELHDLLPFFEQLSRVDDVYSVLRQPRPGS

[2] = target: Tyrosine-protein phosphatase non-receptor type 5 (Homo sapiens, UniProt P54829); experiment: STEP phosphatase inhibitors, confirmation, biochemical, fluorescence intensity, uHTS hits (AID 602372); assay type: functional; details: read-out: IC50_Mean
[3] = target: Tyrosine-protein phosphatase non-receptor type 11 (Homo sapiens, UniProt Q06124); experiment: SHP2 phosphatase inhibition, dose response, selectivity assay for STEP inhibitor project, biochemical (AID 602367); assay type: functional; details: read-out: IC50_Mean
[4] = target: Dual specificity protein phosphatase 3 (Homo sapiens, UniProt P51452); experiment: VHR phosphatase inhibition, dose response, selectivity assay for STEP inhibitor project, biochemical (AID 602374); assay type: functional; details: read-out: IC50_Mean
[5] = target: DNA damage-inducible transcript 3 protein (Mus musculus, UniProt P35639); assay type: functional, Cricetulus griseus
SUMO-activating enzyme [6] = target: T2, SUMO-activating enzyme (Homo sapiens, UniProt Q9UBT2); experiment: SUMOylation inhibitor hit validation, confirmation, SUMOylation inhibitor project, biochemical, AlphaScreen (AID 2018); assay type: functional
Melanocortin receptor 4 = Melanocortin receptor 4 (Homo sapiens, UniProt P32245); assay type: functional, cell-based;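 note: Cell-based assay with luminescence read-out, confirmatory dose-response testing for agonist activity of biased ligands at MC4R; human U2OS cells with tagged receptor and beta-arrestin; potency of agonists that increase receptor coupling to beta-arrestin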
[7] = growth suppression of PTEN-null colon cells, dose response, cell-based, HCT116 PTEN knockout (AID 1047); assay type: functional;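 note: HCT116 colon tumor cells with PTEN knocked out; cells exposed to compound for 60 hours before readout; potency for loss of cell viability measured by luminescence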
[8] = growth suppression of beta-catenin-knockout colon cells, dose response, cell-based, HCT116, human colon tumor (AID 1045); assay type: functional;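 note: HCT116 colon tumor cells with beta catenin knocked out; cells exposed to compound for 60 hours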
[9] = target: Induced myeloid leukemia cell differentiation protein Mcl-1 (Homo sapiens, UniProt Q07820); assay type: functional
SUMO-activating enzyme [10] = target: T2, SUMO-activating enzyme; experiment: inhibitors of in vitro SUMOylation cascade, primary screen, biochemical, HTRF, uHTS (AID 2006); assay type: protein-complex assay
INS1 = experiment: beta cell apoptosis inhibitors, cytokine rescue, dose response, luminescence, retest (AID 449756); assay type: functional, cell-based; details: Rattus norvegicus;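 note: cell death triggered by IL-1 beta plus TNF-alpha plus IFN-gamma mixture; protective hits raise ATP signal compared with cytokine alone wells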
Streptococcus = experiment: Group A Streptococcus viability loss, dose response, counter-screen for streptokinase expression inhibitor project, luminescence, BacTiterGlo (AID 1915); assay type: functional, organism-based;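 note: potency for reduction of bacterial viability or growth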
HEK293 = experiment: inhibitors of LMP1-driven NF-kB reporter, dose response, cell-based, HEK293, luciferase, cherry-pick (AID 588343); assay type: functional; details: Homo sapiens
[11] = C. albicans growth with fluconazole, confirmation, fluorescence, retest (AID 2467); assay type: functional, cell-based
[12] = inhibitors of intracellular T. cruzi replication, confirmation, NIH3T3 host cells, beta-gal luminescence (AID 2044); assay type: functional, cell-based;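 note: intracellular parasites grown in NIH/3T3 mouse fibroblasts as host cells; luminescent beta-galactosidase reporter signal from transgenic T. cruzi replicating inside host cells; inhibitors lower the luminescence signal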
[13] = tested on: Streptococcus sp. 'group A'; experiment: growth inhibition of control SK(-) GAS strain, dose response, counter-screen for streptokinase expression inhibitor project, luminescence, kanamycin, BacTiterGlo, confirmation (AID 1900); assay type: functional, organism-based
[14] = target: ATP-dependent molecular chaperone HSP82 (Candida albicans (strain WO-1) (Yeast), UniProt C4YTQ8); experiment: loss of DOC-induced GRE-beta-galactosidase reporter signal, dose response, Hsp90 inhibitor project, S. cerevisiae, luminescence (AID 2400); assay type: functional, cell-based;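 note: beta-galactosidase luminescence from glucocorticoid response element reporter as proxy for Hsp90 function; inhibitor potency where signal loss means Hsp90 inhibition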
[15] = NIH-3T3 fibroblast cytotoxicity, dose response, cytotoxicity control for antifungal single agent project, cell-based, Alamar Blue, dry powder (AID 602188); assay type: functional
[16] = cytotoxicity toward NIH3T3 fibroblasts, dose response, counter-screen, cell-based, ATP luminescence, mouse fibroblasts (AID 2010); assay type: functional;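 note: cells exposed to compound for about 90 hours before reading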
[17] = target: T3, Serine/threonine-protein phosphatase (Candida dubliniensis (strain CD36 / CBS 7987 / NCPF 3949 / NRRLY-17841) (Yeast), UniProt B9W6M3); experiment: calcineurin pathway inhibitors in yeast reporter, dose response, S. cerevisiae, CDRE-lacZ, luminescence, secondary (AID 2388); assay type: functional, cell-based;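 note: yeast reporter cells carrying a calcineurin-responsive lacZ construct stimulated with calcium chloride; luminescent beta-galactosidase reporter signal in whole cells rather than isolated phosphatase activity; potency for inhibition where a drop in reporter signal means calcineurin blockade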
T3 sequence (B9W6M3 whole entry): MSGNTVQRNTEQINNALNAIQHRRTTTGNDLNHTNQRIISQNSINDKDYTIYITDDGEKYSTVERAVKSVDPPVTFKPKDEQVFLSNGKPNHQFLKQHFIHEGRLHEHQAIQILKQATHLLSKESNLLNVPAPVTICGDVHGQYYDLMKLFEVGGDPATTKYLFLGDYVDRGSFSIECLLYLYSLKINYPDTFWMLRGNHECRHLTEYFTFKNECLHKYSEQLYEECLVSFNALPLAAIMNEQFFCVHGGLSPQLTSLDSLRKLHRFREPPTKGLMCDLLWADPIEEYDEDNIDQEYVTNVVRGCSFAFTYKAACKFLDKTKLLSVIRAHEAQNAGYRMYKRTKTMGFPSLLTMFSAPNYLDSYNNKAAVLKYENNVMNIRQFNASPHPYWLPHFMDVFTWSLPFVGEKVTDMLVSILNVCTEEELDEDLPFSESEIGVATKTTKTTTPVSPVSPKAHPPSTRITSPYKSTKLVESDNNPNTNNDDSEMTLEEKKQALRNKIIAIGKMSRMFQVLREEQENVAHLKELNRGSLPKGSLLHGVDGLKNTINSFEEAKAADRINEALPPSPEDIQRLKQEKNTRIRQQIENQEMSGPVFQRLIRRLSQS

[18] = NIH-3T3 fibroblast cytotoxicity, dose response, cytotoxicity control, cell-based, fluorescence, Alamar Blue, secondary assay (AID 2327); assay type: functional;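 note: NIH-3T3 mouse fibroblasts cultured with fluconazole at 8 µg/mL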
[19] = target: T4, Eukaryotic translation initiation factor 2-alpha kinase 3 (Homo sapiens, UniProt Q9NZJ5); experiment: Dose response cell-based high-throughput screening assay to measure PERK inhibition. [Related pubchem assays: 1416 ]; assay type: functional
T4 sequence (Q9NZJ5 whole entry): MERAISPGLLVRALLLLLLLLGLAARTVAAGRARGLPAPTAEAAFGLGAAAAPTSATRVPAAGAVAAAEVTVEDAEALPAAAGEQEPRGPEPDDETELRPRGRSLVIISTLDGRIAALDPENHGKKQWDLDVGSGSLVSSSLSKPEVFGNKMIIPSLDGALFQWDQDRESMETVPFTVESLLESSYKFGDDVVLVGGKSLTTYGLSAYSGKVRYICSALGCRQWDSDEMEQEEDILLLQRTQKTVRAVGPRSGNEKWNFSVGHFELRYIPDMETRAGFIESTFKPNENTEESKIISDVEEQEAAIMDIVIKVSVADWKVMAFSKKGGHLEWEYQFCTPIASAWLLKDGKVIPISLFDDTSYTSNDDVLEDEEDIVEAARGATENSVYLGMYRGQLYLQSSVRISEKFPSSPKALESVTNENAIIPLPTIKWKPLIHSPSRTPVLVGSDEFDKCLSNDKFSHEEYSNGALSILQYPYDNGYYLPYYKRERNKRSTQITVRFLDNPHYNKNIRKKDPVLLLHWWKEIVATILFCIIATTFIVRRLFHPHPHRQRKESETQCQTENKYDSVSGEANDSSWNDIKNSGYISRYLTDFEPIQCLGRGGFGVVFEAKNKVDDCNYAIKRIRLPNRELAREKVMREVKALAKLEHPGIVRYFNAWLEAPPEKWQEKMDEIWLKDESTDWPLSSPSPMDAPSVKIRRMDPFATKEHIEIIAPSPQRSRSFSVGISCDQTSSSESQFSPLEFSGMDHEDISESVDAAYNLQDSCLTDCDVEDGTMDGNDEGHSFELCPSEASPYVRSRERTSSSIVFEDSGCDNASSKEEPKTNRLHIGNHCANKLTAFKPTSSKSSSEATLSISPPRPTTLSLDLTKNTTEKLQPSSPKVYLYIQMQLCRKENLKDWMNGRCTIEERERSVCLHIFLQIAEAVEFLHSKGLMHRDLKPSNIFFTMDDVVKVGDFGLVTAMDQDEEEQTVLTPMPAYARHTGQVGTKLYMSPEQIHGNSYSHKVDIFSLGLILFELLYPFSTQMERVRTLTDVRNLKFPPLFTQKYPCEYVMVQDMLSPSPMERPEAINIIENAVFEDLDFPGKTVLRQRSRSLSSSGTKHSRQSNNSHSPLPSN

[20] = target: T5, Apoptotic protease-activating factor 1 (Homo sapiens, UniProt O14727); experiment: SAR analysis of small molecule Activators of Apaf-1 in a Fluorescent assay.; assay type: functional; details: read-out: EC50_Mean;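 note: caspase-3 cleavage of fluorogenic Rh110 DEVD substrate downstream of apoptosome activation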
T5 sequence (O14727 whole entry): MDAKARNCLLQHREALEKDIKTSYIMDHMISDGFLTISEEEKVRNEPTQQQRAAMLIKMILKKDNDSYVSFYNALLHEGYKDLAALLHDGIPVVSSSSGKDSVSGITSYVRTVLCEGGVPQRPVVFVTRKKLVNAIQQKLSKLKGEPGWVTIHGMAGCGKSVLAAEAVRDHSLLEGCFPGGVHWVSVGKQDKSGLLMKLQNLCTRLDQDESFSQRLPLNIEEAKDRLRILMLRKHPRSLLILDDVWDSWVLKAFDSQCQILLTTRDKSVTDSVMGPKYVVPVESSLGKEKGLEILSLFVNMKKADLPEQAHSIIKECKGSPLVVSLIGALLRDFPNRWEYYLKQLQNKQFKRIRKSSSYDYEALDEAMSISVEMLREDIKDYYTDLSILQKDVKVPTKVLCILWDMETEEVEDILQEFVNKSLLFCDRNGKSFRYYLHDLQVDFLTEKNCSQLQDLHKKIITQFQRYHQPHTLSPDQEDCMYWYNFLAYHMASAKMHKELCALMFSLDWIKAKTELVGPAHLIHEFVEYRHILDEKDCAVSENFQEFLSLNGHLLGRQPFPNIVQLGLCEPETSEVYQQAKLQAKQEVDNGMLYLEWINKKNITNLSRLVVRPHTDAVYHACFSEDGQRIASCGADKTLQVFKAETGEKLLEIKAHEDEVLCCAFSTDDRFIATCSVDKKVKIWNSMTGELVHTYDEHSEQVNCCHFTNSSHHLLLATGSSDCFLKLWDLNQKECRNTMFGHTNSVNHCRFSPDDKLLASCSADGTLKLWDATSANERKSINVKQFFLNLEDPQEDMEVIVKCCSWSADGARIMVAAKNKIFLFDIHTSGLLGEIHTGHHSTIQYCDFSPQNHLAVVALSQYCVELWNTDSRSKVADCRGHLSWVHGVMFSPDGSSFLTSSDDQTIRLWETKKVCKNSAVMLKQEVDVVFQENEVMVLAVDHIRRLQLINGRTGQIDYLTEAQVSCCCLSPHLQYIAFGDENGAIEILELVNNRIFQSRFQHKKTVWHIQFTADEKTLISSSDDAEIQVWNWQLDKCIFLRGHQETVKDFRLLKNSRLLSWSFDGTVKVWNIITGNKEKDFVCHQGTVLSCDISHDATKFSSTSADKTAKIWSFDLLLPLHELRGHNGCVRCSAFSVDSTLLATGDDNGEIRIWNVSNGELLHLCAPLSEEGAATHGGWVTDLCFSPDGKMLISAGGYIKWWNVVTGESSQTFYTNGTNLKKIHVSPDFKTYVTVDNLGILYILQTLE

[21] = target: T4, Eukaryotic translation initiation factor 2-alpha kinase 3; experiment: Counterscreen assay for PERK inhibitors: Dose response cell-based high throughput screening assay to measure inhibition of PERK at 6 hours. [Related pubchem assays: 1522, 1416 ]; assay type: functional
[22] = target: Potassium voltage-gated channel subfamily KQT member 2 (Rattus norvegicus, UniProt O88943); experiment: KCNQ2 potassium channel inhibitors, dose response, cell-based, automated electrophysiology, set II, rat KCNQ2 (AID 588637); assay type: functional
[23] = AlphaScreen signal interference compounds, dose response, artefact control for ARNT-TACC3 interaction inhibitor project, biochemical, luminescence, cherry-pick (AID 651705); assay type: functional;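 note: AlphaScreen bead proximity signal that flags compounds interfering with the detection technology; potency reflects signal decrease which marks the compound as an assay artifact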

T2 sequence (Q9UBE0 whole entry): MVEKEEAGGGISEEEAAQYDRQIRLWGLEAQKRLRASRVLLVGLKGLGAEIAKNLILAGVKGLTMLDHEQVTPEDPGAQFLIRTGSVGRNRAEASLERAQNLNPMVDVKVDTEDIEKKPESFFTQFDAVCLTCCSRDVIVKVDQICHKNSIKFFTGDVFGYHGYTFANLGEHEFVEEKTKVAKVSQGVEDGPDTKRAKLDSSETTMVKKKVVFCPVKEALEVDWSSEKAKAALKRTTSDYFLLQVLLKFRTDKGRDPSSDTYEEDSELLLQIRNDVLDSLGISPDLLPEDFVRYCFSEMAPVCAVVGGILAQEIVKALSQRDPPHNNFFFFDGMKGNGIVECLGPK
T2 sequence (Q9UBT2 whole entry): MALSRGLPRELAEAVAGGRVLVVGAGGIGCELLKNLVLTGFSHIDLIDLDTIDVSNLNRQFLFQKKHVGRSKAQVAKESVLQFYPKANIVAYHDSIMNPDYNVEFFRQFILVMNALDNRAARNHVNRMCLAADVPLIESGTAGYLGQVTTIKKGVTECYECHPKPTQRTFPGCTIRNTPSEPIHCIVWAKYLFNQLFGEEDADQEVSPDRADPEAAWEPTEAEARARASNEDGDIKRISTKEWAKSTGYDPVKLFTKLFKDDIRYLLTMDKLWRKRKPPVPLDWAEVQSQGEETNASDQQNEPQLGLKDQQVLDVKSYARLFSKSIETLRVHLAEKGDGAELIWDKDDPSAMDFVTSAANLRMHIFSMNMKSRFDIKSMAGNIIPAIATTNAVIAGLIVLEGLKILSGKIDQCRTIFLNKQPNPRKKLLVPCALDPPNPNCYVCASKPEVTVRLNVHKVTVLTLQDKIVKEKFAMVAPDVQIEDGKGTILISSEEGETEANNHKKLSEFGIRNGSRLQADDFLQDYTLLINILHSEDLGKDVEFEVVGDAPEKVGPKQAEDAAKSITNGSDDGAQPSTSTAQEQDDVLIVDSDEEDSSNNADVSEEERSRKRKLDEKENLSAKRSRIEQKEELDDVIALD
Chain of ATP-dependent molecular chaperone HSP82 (C4YTQ8 whole entry): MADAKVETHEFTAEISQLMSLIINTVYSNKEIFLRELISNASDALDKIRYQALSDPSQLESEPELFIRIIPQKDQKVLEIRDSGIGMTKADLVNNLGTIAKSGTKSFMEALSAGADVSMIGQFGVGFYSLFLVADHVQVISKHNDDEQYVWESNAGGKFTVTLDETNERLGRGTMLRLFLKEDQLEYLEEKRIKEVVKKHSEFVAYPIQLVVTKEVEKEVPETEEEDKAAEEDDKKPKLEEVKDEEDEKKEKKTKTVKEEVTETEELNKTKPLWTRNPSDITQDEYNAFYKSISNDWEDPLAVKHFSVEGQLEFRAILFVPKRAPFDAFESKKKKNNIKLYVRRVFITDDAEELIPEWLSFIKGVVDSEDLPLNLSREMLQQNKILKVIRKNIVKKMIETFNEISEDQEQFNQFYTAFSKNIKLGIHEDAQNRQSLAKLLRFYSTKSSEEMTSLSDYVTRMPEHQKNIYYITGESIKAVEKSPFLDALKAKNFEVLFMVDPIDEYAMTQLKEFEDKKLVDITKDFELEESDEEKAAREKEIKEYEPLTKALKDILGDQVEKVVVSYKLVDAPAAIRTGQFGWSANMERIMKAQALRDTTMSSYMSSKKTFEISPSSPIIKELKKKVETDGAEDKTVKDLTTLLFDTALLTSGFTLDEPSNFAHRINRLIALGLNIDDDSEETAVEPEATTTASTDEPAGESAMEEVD
Chain of DNA damage-inducible transcript 3 protein (P35639 whole entry): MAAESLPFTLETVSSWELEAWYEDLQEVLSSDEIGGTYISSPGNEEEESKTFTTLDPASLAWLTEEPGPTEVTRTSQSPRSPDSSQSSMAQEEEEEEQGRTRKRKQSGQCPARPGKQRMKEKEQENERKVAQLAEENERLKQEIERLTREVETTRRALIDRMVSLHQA
Chain of Melanocortin receptor 4 (P32245 whole entry): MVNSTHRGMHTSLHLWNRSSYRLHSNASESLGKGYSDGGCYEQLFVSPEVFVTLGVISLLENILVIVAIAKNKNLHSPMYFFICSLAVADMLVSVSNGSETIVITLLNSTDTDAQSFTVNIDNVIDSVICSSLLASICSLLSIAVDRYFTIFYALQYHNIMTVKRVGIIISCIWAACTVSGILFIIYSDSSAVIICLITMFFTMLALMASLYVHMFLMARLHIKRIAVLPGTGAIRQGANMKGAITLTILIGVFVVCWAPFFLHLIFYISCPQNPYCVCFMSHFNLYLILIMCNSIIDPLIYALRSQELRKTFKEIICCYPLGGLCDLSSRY
Chain of Induced myeloid leukemia cell differentiation protein Mcl-1 (Q07820 whole entry): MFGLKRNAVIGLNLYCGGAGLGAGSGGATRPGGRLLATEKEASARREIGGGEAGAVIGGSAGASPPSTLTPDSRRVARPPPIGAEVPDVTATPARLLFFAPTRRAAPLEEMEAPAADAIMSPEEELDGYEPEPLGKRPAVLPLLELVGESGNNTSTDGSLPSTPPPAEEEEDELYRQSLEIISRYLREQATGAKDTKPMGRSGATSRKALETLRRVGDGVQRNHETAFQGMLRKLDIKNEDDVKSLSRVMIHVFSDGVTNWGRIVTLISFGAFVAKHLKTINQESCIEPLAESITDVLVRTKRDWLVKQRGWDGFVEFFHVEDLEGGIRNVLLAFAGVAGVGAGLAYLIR
Chain of Potassium voltage-gated channel subfamily KQT member 2 (O88943 whole entry): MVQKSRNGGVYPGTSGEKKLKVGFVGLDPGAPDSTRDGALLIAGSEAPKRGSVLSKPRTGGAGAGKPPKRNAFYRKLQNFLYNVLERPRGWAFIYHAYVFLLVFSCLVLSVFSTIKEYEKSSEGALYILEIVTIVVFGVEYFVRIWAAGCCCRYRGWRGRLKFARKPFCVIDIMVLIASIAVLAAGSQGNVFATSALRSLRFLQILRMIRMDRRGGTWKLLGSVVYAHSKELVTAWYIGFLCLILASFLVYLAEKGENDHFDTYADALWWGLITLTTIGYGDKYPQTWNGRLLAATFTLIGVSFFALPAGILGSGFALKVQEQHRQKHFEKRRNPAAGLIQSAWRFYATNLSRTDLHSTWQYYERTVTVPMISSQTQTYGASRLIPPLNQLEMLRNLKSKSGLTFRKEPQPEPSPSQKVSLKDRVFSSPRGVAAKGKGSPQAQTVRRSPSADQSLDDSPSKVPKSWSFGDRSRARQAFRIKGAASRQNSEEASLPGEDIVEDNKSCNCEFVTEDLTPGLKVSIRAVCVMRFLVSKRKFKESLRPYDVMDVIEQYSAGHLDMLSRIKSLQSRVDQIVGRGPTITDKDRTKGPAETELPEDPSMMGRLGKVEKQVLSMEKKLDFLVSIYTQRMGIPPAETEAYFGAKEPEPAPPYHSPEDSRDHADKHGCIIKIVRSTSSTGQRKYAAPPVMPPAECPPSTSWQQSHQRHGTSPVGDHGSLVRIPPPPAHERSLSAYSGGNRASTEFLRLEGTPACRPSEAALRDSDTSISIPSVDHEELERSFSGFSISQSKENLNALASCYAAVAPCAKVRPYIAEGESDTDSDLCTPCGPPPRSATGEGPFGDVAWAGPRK
Chain of Tyrosine-protein phosphatase non-receptor type 5 (P54829 whole entry): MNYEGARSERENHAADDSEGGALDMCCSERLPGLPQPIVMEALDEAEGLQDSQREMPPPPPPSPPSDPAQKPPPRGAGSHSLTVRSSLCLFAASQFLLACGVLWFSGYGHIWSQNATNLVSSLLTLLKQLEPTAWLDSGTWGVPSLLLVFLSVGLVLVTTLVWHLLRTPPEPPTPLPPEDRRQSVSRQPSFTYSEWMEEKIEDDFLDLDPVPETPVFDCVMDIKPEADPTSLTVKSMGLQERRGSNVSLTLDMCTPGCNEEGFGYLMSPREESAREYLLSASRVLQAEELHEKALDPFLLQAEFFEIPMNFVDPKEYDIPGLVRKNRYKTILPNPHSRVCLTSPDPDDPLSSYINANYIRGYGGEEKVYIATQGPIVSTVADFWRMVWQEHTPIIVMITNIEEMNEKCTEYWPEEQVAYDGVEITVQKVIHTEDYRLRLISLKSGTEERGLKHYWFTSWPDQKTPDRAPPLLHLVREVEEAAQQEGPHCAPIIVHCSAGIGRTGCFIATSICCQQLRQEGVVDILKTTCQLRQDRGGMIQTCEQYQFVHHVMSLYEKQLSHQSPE
Chain of Tyrosine-protein phosphatase non-receptor type 11 (Q06124 whole entry): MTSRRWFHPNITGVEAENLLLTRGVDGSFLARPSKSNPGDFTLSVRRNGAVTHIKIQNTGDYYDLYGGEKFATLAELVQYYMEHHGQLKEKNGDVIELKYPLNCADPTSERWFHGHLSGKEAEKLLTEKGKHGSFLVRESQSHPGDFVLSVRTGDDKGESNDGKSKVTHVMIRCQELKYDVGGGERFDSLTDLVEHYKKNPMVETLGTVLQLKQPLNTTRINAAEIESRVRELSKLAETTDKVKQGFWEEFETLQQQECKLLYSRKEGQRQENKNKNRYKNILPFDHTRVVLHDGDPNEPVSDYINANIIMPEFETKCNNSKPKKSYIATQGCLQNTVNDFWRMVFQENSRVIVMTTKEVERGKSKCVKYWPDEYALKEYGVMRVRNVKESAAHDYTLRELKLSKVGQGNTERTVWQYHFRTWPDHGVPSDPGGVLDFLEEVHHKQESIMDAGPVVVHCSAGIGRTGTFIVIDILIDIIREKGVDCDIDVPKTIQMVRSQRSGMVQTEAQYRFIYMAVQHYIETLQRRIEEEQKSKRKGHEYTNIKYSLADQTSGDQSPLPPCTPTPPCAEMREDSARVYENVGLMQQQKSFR
Chain of Dual specificity protein phosphatase 3 (P51452 whole entry): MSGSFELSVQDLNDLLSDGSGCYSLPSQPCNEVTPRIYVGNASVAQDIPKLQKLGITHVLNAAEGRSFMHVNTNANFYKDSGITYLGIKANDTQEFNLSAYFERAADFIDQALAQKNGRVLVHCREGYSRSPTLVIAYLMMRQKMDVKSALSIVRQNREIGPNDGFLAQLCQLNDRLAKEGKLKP

For `CCN(c1ccccc1)S(=O)(=O)c1cc(C(=O)OCC(=O)c2c(N)n(C)c(=O)n(C)c2=O)ccc1C`, the IC50 [1] was 3.71 µM (active), the IC50 [2] was 30.9 µM (inactive) and the IC50 [3] was 1.13 µM (active). The IC50 [4] was 2.62 µM (active).

In the case of `O=C(N=Nc1c(O)n(Cc2ccccc2)c2ccccc12)c1cc2ccccc2cc1O`, the “Absolute IC50 (CHOP)” value [5] is reported as 10 µM, the IC50 (SUMO-activating enzyme [6]) is reported as 12.3 µM (active) and the EC50 (Melanocortin receptor 4) is reported as > 89.2 µM (inactive). The EC50 [7] was 4.96 µM (active), the EC50 [8] was 5.03 µM (active) and the IC50 [9] was 5.39 µM (active). For the same molecule, the IC50 (SUMO-activating enzyme [10]) was 13.8 µM (active) and the AC50 (INS1) was 7.06 µM (active).

In the case of `COc1ccc(-c2nnc(NC(=O)c3ccc(S(=O)(=O)N4CCCc5ccccc54)cc3)o2)cc1`, the EC50 (Streptococcus) is reported as 0.855 µM (active), the AC50 (HEK293) is reported as 3.47 µM (active) and the EC50 [11] is reported as 0.326 µM (active). For the same molecule, the EC50 [12] was 0.795 µM (active), the EC50 [13] was 0.186 µM (active) and the EC50 [14] was > 150 µM (inactive). For the same molecule, the AC50 [15] was 2.71 µM (active), the EC50 [16] was 5.82 µM (active) and the EC50 [17] was > 180 µM (inactive). The EC50 [18] was 32.9 µM (inconclusive).

With `Cc1csc2c(=O)sc(NC(=O)c3ccc(F)cc3)nc12` the EC50 [19] was > 55.7 µM (not active), the EC50 [20] was > 100 µM (inactive) and the EC50 [21] was > 55.7 µM (not active).

For `Cc1ccccc1OCCn1cc(C(=O)C(=O)N2CCOCC2)c2ccccc21`, the IC50 [22] was 8.84 µM (active).

With `O=C(O)c1ccccc1-c1ccccc1C(=O)Nc1ccc2c(c1)nc(O)c1ccccc12` the AC50 [23] was 79.9 µM (active).
